Test results taken from patent publication US20240409585A1, “MACROCYCLIC IMMUNOMODULATORS” (priority 2021, published 2024).
Bridge positions count the residues as written; N and C are the ends. Square brackets hold non-standard residues; d marks the D form. Peptide text beside a SMILES is read from it. * marks the point of attachment. ξ: configuration not given here. Tyr(3-NO2) = N[C@@H](Cc1ccc(O)c([N+](=O)[O-])c1)C(=O)O; Phe(4-COOH) = N[C@@H](Cc1ccc(C(=O)O)cc1)C(=O)O; Bip = N[C@@H](Cc1ccc(-c2ccccc2)cc1)C(=O)O; Phe(3-Cl) = N[C@@H](Cc1cccc(Cl)c1)C(=O)O; Phe(3-Me) = Cc1cccc(C[C@H](N)C(=O)O)c1; Val(3-OH) = CC(C)(O)[C@H](N)C(=O)O; 3Pal = N[C@@H](Cc1cccnc1)C(=O)O; 4Pal = N[C@@H](Cc1ccncc1)C(=O)O; Cha = N[C@@H](CC1CCCCC1)C(=O)O; Cit = NC(=O)NCCC[C@H](N)C(=O)O; dNMeNle = CCCC[C@@H](NC)C(=O)O; Thr(3ξ) = CC(O)[C@H](N)C(=O)O; Carboxymethyl = O=C(O)C*; NMeA = CN[C@@H](C)C(=O)O; Nle = CCCC[C@H](N)C(=O)O; Dab = NCC[C@H](N)C(=O)O; Dap = NC[C@H](N)C(=O)O

Target: T1, PE-labeled human PD-L1-Ig binding to Jurkat cell line over-expressing human PD-1 (Jurkat-PD-1) (Homo sapiens, UniProt Q15116)
T1 construct: expressed in transfected cells; host or cells: Jurkat
Assay: Jurkat-PD-1 Cell Binding High-Content Screening Assay (CBA): Method 1
Conditions: Jurkat-hPD-1 cells, PE-labeled PD-L1-Ig 20 nM final; read-out: Jurkat HPDL1 PD1 IC50 (uM) (Method 1)

T1 sequence (Q15116 25-288): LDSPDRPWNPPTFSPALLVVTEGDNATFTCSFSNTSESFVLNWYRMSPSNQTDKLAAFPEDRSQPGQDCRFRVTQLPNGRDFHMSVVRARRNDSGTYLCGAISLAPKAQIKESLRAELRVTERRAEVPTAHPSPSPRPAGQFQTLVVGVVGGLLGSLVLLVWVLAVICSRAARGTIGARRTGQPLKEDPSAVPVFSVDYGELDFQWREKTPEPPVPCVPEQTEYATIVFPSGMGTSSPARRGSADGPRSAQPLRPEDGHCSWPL

| Compound | IC50 [µM] |
| --- | --- |
| Cc1cccc(C[C@@H]2NC(=O)[C@H](CC(=O)O)NC(=O)[C@H](Cc3ccc(O)cc3)NC(=O)[C@H](CC(N)=O)NC(=O)CSC[C@@H](C(N)=O)NC(=O)[C@H]([C@@H](C)O)NC(=O)[C@H](C(C)C)NC(=O)[C@H](CC(C)C)NC(=O)[C@H](CCN)NC(=O)[C@@H](CC(C)C)NC(=O)[C@H](C)N(C)C(=O)[C@H](C(C)C)NC(=O)[C@H](Cc3ccc(-c4ccccc4)cc3)NC(=O)[C@H](C(C)C)NC2=O)c1 [Compound 1637] ({CH2CO}-NYD[Phe(3-Me)]V[Bip]V[NMeA][dL][Dab]LVTC-NH2; thioether N-14) | 0.15 |
| CC(C)C[C@@H]1NC(=O)[C@H](Cc2c[nH]c3ccccc23)NC(=O)[C@H](CC(=O)O)NC(=O)[C@H](Cc2ccc(C(=O)O)cc2)NC(=O)[C@H](Cc2cccnc2)NC(=O)CSC[C@@H](C(=O)N[C@@H](C)C(N)=O)NC(=O)[C@H](CO)NC(=O)[C@H](C(C)C)NC(=O)[C@H](CC(C)C)NC(=O)[C@H](CCCCN)NC(=O)[C@@H](C)NC(=O)[C@H](C)N(C)C(=O)[C@H](CCC(=O)O)NC(=O)[C@H](Cc2ccc(-c3ccccc3)cc2)NC1=O [Compound 1761] ({CH2CO}-[3Pal][Phe(4-COOH)]DWL[Bip]E[NMeA][dA]KLVSCA-NH2; thioether N-14) | 0.03 |
| CC(C)C[C@@H]1NC(=O)[C@H](CCN)NC(=O)[C@@H](CC(C)C)NC(=O)[C@H](C)N(C)C(=O)[C@H](CCCNC(N)=O)NC(=O)[C@H](Cc2ccc(-c3ccccc3)cc2)NC(=O)[C@H](C(C)C)NC(=O)[C@H](Cc2c[nH]c3ccccc23)NC(=O)[C@H](CC(=O)O)NC(=O)[C@H](Cc2ccc(O)cc2)NC(=O)[C@H](Cc2ccc(C(=O)O)cc2)NC(=O)CSC[C@@H](C(=O)N[C@@H](C)C(N)=O)NC(=O)[C@H]([C@@H](C)O)NC(=O)[C@H](C(C)C)NC1=O [Compound 1326] ({CH2CO}-[Phe(4-COOH)]YDWV[Bip][Cit][NMeA][dL][Dab]LVTCA-NH2; thioether N-14) | 0.02 |
| Cc1cccc(C[C@@H]2NC(=O)[C@H](CC(=O)O)NC(=O)[C@H](Cc3ccncc3)NC(=O)[C@H](Cc3ccc(OCC(=O)O)cc3)NC(=O)CSC[C@@H](C(=O)N[C@@H](CC(=O)O)C(N)=O)NC(=O)[C@H](CO)NC(=O)[C@H](C(C)C)NC(=O)[C@H](CC(C)C)NC(=O)[C@H](CC(N)=O)NC(=O)[C@@H](CC(C)C)NC(=O)[C@H](C)N(C)C(=O)[C@H](C(C)C)NC(=O)[C@H](Cc3ccc(-c4ccccc4)cc3)NC(=O)[C@H](CC(C)C)NC2=O)c1 [Compound 1601] ({CH2CO}-Y(Carboxymethyl)[4Pal]D[Phe(3-Me)]L[Bip]V[NMeA][dL]NLVSCD-NH2; thioether N-14) | 0.02 |
| CC(C)C[C@@H]1NC(=O)[C@H](Cc2c[nH]c3ccccc23)NC(=O)[C@H](CC(=O)O)NC(=O)[C@H](Cc2ccc(O)cc2)NC(=O)[C@H](Cc2ccccc2)NC(=O)CSC[C@@H](C(=O)N[C@@H](C)C(N)=O)NC(=O)[C@H](CO)NC(=O)[C@H](C(C)C)NC(=O)[C@H](CC(C)C)NC(=O)[C@H](CC(N)=O)NC(=O)[C@@H](CCCCN)NC(=O)[C@H](C)N(C)C(=O)[C@H](C(C)C)NC(=O)[C@H](Cc2ccc(-c3ccccc3)cc2)NC1=O [Compound 1793] ({CH2CO}-FYDWL[Bip]V[NMeA][dK]NLVSCA-NH2; thioether N-14) | 0.15 |
| CC(C)C[C@@H]1NC(=O)[C@H](CCN)NC(=O)[C@@H](CC(C)C)NC(=O)[C@H](C)N(C)C(=O)[C@H](CCCNC(=N)N)NC(=O)[C@H](Cc2ccc(-c3ccccc3)cc2)NC(=O)[C@H](C(C)C)NC(=O)[C@H](Cc2c[nH]c3ccccc23)NC(=O)[C@H](CC(=O)O)NC(=O)[C@H](Cc2ccc(O)c([N+](=O)[O-])c2)NC(=O)[C@H](Cc2cccnc2)NC(=O)CSC[C@@H](C(=O)N[C@@H](C)C(N)=O)NC(=O)[C@H]([C@@H](C)O)NC(=O)[C@H](C(C)C)NC1=O [Compound 1155] ({CH2CO}-[3Pal][Tyr(3-NO2)]DWV[Bip]R[NMeA][dL][Dab]LVTCA-NH2; thioether N-14) | 0.02 |
| Cc1cccc(C[C@@H]2NC(=O)[C@H](CC(=O)O)NC(=O)[C@H](Cc3ccc(OCC(=O)O)cc3)NC(=O)[C@H](C(C)O)NC(=O)CSC[C@@H](C(=O)N[C@@H](CCN)C(N)=O)NC(=O)[C@H](CO)NC(=O)[C@H](C(C)(C)O)NC(=O)[C@H](CC3CCCCC3)NC(=O)[C@H](CCN)NC(=O)[C@@H](CC(C)C)NC(=O)[C@H](C)N(C)C(=O)[C@H](Cc3ccc(OCC(=O)O)cc3)NC(=O)[C@H](Cc3ccc(-c4ccccc4)cc3)NC(=O)[C@H](Cc3ccc(OCC(=O)O)cc3)NC2=O)c1 (stereo partly drawn) [Compound 2149] ({CH2CO}-[Thr(3ξ)]Y(Carboxymethyl)D[Phe(3-Me)]Y(Carboxymethyl)[Bip]Y(Carboxymethyl)[NMeA][dL][Dab][Cha][Val(3-OH)]SC[Dab]-NH2; thioether N-14) | 0.02 |
| CC(C)C[C@@H]1NC(=O)[C@H](CCN)NC(=O)[C@@H](CC(C)C)NC(=O)[C@H](C)N(C)C(=O)[C@H](CCCNC(=N)N)NC(=O)[C@H](Cc2ccc(-c3ccccc3)cc2)NC(=O)[C@H](C(C)C)NC(=O)[C@H](Cc2c[nH]c3ccccc23)NC(=O)[C@H](CC(=O)O)NC(=O)[C@H](Cc2cccc(Cl)c2)NC(=O)[C@H](CN)NC(=O)CSC[C@@H](C(=O)N[C@@H](C)C(N)=O)NC(=O)[C@H]([C@@H](C)O)NC(=O)[C@H](C(C)C)NC1=O [Compound 1445] ({CH2CO}-[Dap][Phe(3-Cl)]DWV[Bip]R[NMeA][dL][Dab]LVTCA-NH2; thioether N-14) | 0.11 |
| Cc1cccc(C[C@@H]2NC(=O)[C@H](CC(=O)O)NC(=O)[C@H](Cc3ccc(OCC(=O)O)cc3)NC(=O)[C@H]([C@@H](C)O)NC(=O)CSC[C@@H](C(N)=O)NC(=O)[C@H]([C@@H](C)O)NC(=O)[C@H](C(C)C)NC(=O)[C@H](CC3CCCCC3)NC(=O)[C@H](CC(N)=O)NC(=O)[C@@H](CC(C)C)NC(=O)[C@H](C)N(C)C(=O)[C@H](Cc3ccc(OCC(=O)O)cc3)NC(=O)[C@H](Cc3ccc(-c4ccccc4)cc3)NC(=O)[C@H](Cc3ccc(OCC(=O)O)cc3)NC2=O)c1 [Compound 1678] ({CH2CO}-TY(Carboxymethyl)D[Phe(3-Me)]Y(Carboxymethyl)[Bip]Y(Carboxymethyl)[NMeA][dL]N[Cha]VTC-NH2; thioether N-14) | 0.15 |
| Cc1cccc(C[C@@H]2NC(=O)[C@H](CC(=O)O)NC(=O)[C@H](Cc3ccc(O)cc3)NC(=O)[C@H](CC(N)=O)NC(=O)CSC[C@@H](C(=O)N[C@@H](CCN)C(N)=O)NC(=O)[C@H]([C@@H](C)O)NC(=O)[C@H](C(C)(C)O)NC(=O)[C@H](CC3CCCCC3)NC(=O)[C@H](CCN)NC(=O)[C@@H](CC(C)C)NC(=O)[C@H](C)N(C)C(=O)[C@H](CCCNC(N)=O)NC(=O)[C@H](Cc3ccc(-c4ccccc4)cc3)NC(=O)[C@H](C(C)(C)O)NC2=O)c1 [Compound 1705] ({CH2CO}-NYD[Phe(3-Me)][Val(3-OH)][Bip][Cit][NMeA][dL][Dab][Cha][Val(3-OH)]TC[Dab]-NH2; thioether N-14) | 0.03 |
| CC(C)C[C@@H]1NC(=O)[C@H](CC(N)=O)NC(=O)[C@@H](CC(C)C)NC(=O)[C@H](C)N(C)C(=O)[C@H](CCCNC(N)=O)NC(=O)[C@H](Cc2ccc(-c3ccccc3)cc2)NC(=O)[C@H](C(C)C)NC(=O)[C@H](Cc2c[nH]c3ccccc23)NC(=O)[C@H](CC(=O)O)NC(=O)[C@H](Cc2ccc(O)cc2)NC(=O)[C@H](Cc2ccccc2)NC(=O)CSC[C@@H](C(=O)N[C@@H](C)C(=O)N[C@@H](CN)C(=O)O)NC(=O)[C@H](CO)NC(=O)[C@H](C(C)C)NC1=O [Compound 2004] ({CH2CO}-FYDWV[Bip][Cit][NMeA][dL]NLVSCA[Dap]-OH; thioether N-14) | 0.02 |
| CC(C)C[C@@H]1NC(=O)[C@H](CCCNC(=N)N)NC(=O)[C@@H](CC(C)C)NC(=O)[C@H]2CCCN2C(=O)[C@H](CCCNC(=N)N)NC(=O)[C@H](Cc2ccc(-c3ccccc3)cc2)NC(=O)[C@H](C(C)C)NC(=O)[C@H](Cc2c[nH]c3ccccc23)NC(=O)[C@H](CC(=O)O)NC(=O)[C@H](Cc2ccc(O)cc2)NC(=O)[C@H](CC(N)=O)NC(=O)CSC[C@@H](C(=O)N[C@@H](C)C(N)=O)NC(=O)[C@H]([C@@H](C)O)NC(=O)[C@H](C(C)C)NC1=O [Compound 1214] ({CH2CO}-NYDWV[Bip]R[dP][dL]RLVTCA-NH2; thioether N-14) | 0.05 |
| CCCC[C@@H]1C(=O)N[C@@H](Cc2ccc(OCC(=O)O)cc2)C(=O)N[C@@H](CC(=O)O)C(=O)N[C@@H](Cc2cccc(C)c2)C(=O)N[C@@H](Cc2ccc(OCC(=O)O)cc2)C(=O)N[C@@H](Cc2ccc(-c3ccccc3)cc2)C(=O)N[C@@H](Cc2ccc(OCC(=O)O)cc2)C(=O)N(C)[C@@H](C)C(=O)N[C@H](CC(C)C)C(=O)N[C@@H](CCN)C(=O)N[C@@H](CC2CCCCC2)C(=O)N[C@@H](C(C)C)C(=O)N[C@@H](CO)C(=O)N[C@H](C(=O)N[C@@H](CCN)C(N)=O)CSCC(=O)N1C [Compound 1859] ({CH2CO}-[dNMeNle]Y(Carboxymethyl)D[Phe(3-Me)]Y(Carboxymethyl)[Bip]Y(Carboxymethyl)[NMeA][dL][Dab][Cha]VSC[Dab]-NH2; thioether N-14) | 0.05 |
| CC(C)C[C@@H]1NC(=O)[C@H](Cc2c[nH]c3ccccc23)NC(=O)[C@H](CC(=O)O)NC(=O)[C@H](Cc2ccc(O)cc2)NC(=O)[C@H](Cc2ccccc2)NC(=O)CSC[C@@H](C(=O)N[C@@H](C)C(N)=O)NC(=O)[C@H](CO)NC(=O)[C@H](C(C)C)NC(=O)[C@H](CC(C)C)NC(=O)[C@H](CC(N)=O)NC(=O)[C@@H](CCCNC(=N)N)NC(=O)[C@H](C)N(C)C(=O)[C@H](C(C)C)NC(=O)[C@H](Cc2ccc(-c3ccccc3)cc2)NC1=O [Compound 1804] ({CH2CO}-FYDWL[Bip]V[NMeA][dR]NLVSCA-NH2; thioether N-14) | 0.21 |
| CCCC[C@@H]1NC(=O)[C@H](CCCNC(=N)N)NC(=O)[C@@H](CC(C)C)NC(=O)[C@H](C)N(C)C(=O)[C@H](CCCNC(=N)N)NC(=O)[C@H](Cc2ccc(-c3ccccc3)cc2)NC(=O)[C@H](C(C)C)NC(=O)[C@H](Cc2c[nH]c3ccccc23)NC(=O)[C@H](CC(=O)O)NC(=O)[C@H](Cc2ccc(O)cc2)NC(=O)[C@H](CC(N)=O)NC(=O)CSC[C@@H](C(=O)N[C@@H](C)C(N)=O)NC(=O)[C@H]([C@@H](C)O)NC(=O)[C@H](C(C)C)NC1=O [Compound 1282] ({CH2CO}-NYDWV[Bip]R[NMeA][dL]R[Nle]VTCA-NH2; thioether N-14) | 0.13 |
